Assay results as given in patent publication US4255183A, “Substituted phenyl urea and herbicides for use in paddy field” (Hokko Chemical Industry Co., Ltd., priority 1977, dated 1981).
Where two headings read alike, the source gives them in different places.

Assays:
[1] = system: Echinochloa crus-galli var. oryzicola; experiment: Test Example 1: pot test on selectivity, inhibition of Echinochloa crus-galli var. oryzicola; format: in vivo; conditions: for inhibition at 750 g/ha / inhibition at 1500 g/ha / inhibition at 3000 g/ha / inhibition at 6000 g/ha / inhibition at 9000 g/ha: Echinochloa crus-galli, 720 h, dry weight 30 days after treatment; for inhibition at 750 g/ha: 75 g/10 are; for inhibition at 1500 g/ha: 150 g/10 are; for inhibition at 3000 g/ha: 300 g/10 are; for inhibition at 6000 g/ha: 600 g/10 are; for inhibition at 9000 g/ha: 900 g/10 are
How it was run: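 Inhibition rate was calculated from weed and rice dry weight relative to untreated pots, measured 30 days after treatment. The emulsion, at predetermined concentrations, was applied dropwise to flooded (~1 cm) paddy-soil pots sown with Echinochloa crus-galli var. oryzicola and rice, at the weed's one-leaf and five-leaf stages.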

Acute fish toxicity = conditions: in vivo; young carp, Official Standard of Ministry of Agriculture & Forestry; read-out: acute fish toxicity TLm
Experimental: Acute oral toxicity LD50 value of the compound of the invention measured on SD-strain rat is more than 2,000 mg/Kg for any of the trans-form, cis-form and a mixture thereof in equal amount and further acute fish toxicity TLm value (as defined by Official Standard issued from Ministry of Agriculture & Forestry) measured on young carp is more than 20 ppm for any of the above compounds.

Umbrella plant = experiment: Test Example 5: Wagner pot test, herbicidal effect on umbrella plant; format: in vivo; conditions: 20 days after application
How it was run: (§1)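 Paddy soil in 1/7500 are Wagner pots flooded about 2 cm, transplanted rice (2–3-leaf stage), sown bulrush, naturally emerging other weeds. Emulsion applied dropwise to water surface at predetermined concentration when weeds reached defined leaf age. Herbicidal effect and rice injury scored by index 20 days after application, three replicates.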

Dopatrium junceum = experiment: Test Example 5: Wagner pot test, herbicidal effect on Dopatrium junceum; format: in vivo
How it was run: as §1

[2] = system: Echinochloa crus-galli var. oryzicola; experiment: Test Example 2: concrete pot test on killing effect, Echinochloa crus-galli var. oryzicola; format: in vivo; conditions: Echinochloa crus-galli, 720 h, granule, 30 days after treatment; for inhibition at 1000 g/ha: 100 g/10 are; for inhibition at 3000 g/ha: 300 g/10 are; for inhibition at 9000 g/ha: 900 g/10 are
How it was run: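 Barnyardgrass seeded in flooded alluvial paddy soil (~3 cm water) in concrete pots, with 2.5-leaf Asahi rice transplanted before weed emergence. Granules applied at weed 1-leaf or 5-leaf stage. Dry weights measured 30 days after treatment; inhibition rate calculated versus untreated area.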

Bulrush = experiment: Test Example 5: Wagner pot test, herbicidal effect on Bulrush; format: in vivo
How it was run: as §1

[3] = system: Echinochloa crus-galli var. oryzicola; experiment: Test Example 4: field test in submerged directly seeded paddy field, Echinochloa crus-galli var. oryzicola; format: in vivo; conditions: Echinochloa crus-galli, 504 h; 300 g/10 are, emulsion, 2- to 3-leaf stage, 21 days after application; read-out: Inhibition (%) of E. crus-galli var. oryzicola
How it was run: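 Field plot of 10 m² with Echinochloa seeds sown at puddling and water kept 3–5 cm deep; emerged paddy rice (Asahi) was seeded 3 days later. The emulsion was sprayed uniformly when both species reached the 2–3-leaf stage, and results were assessed 21 days after application.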

[4] = system: Echinochloa crus-galli var. oryzicola; experiment: Test Example 3: field test in transplanted paddy field, Echinochloa crus-galli var. oryzicola; format: in vivo; conditions: Echinochloa crus-galli, 1440 h; 300 g/10 are, granule, applied at 4-leaf stage, examined 60 days after transplantation; read-out: Inhibition (%) of E. crus-galli var. oryzicola
Experimental: In a Wagner pot of 1/500 are, paddy field soil (alluvial soil) was placed and 50 seeds of Echinochloa crus-galli var. oryzicola and 30 seeds of paddy rice were seeded in the surface layer of said soil and the submerging depth was kept at about 1 cm. When Echinochloa crus-galli var. oryzicola reached at the one leaf stage and 5-leaf stage, the emulsion of a predetermined concentration, prepared according to Example 4 was added dropwise. After 30 days from the treatment with the chemical, dry weights of Echinochloa crus-galli var. oryzicola and paddy rice were measured and the inhibition rate was calculated with reference to untreated area. [formula]
In a 10 m^2 paddy field, young seedlings of paddy rice (Asahi species) at the 2,5-leaf stage were transplanted 30 days after the puddling the submerging at the depth of 3-5 cm. 25 Days after the transplantation, when Echinochloa crus-galli var. oryzicola reached 4-leaf stage, a predetermined dose of the granule prepared according to Example 1 was applied. Test results were examined 60 days after the transplantation of paddy rice in the similar manner as in Test Example 1.
Comparative chemicals used were all those commercially available and in the case of the comparative chemical 2, CNP was applied 3 days after the transplantation of paddy rice and after 25 days a mixture of Benthiocarb and Simetryne was applied.

[5] = 1-leaf stage, read-out: Inhibition (%) by treatment at 1-leaf stage, E. crus-galli var. oryzicola
[6] = 5-leaf stage, read-out: Inhibition (%) by treatment at 5-leaf stage, E. crus-galli var. oryzicola
[7] = 300 g/10a, leaf age 3, 20 days after application
[8] = 600 g/10a, leaf age 3, 20 days after application
[9] = read-out: Inhibition (%) by treatment at 1-leaf stage of E. crus-galli var. oryzicola, E. crus-galli var. oryzicola
[10] = read-out: Inhibition (%) by treatment at 5-leaf stage of E. crus-galli var. oryzicola, E. crus-galli var. oryzicola

C/C=C\COc1ccc(NC(=O)N(C)C)cc1 [cis-form, 3-(4-cis-crotyloxyphenyl)-1,1-dimethyl urea]
> 20 µg/mL: LC50 (Acute fish toxicity)
5 (100): Weed kill degree, Umbrella plant (Umbrella plant; 300 g/10a, leaf age 2 (first group of columns)) | Weed kill degree, Umbrella plant (Umbrella plant; 300 g/10a, leaf age 2 (second group of columns)) | Weed kill degree, Umbrella plant (Umbrella plant; 600 g/10a, leaf age 2 (first group of columns)) | Weed kill degree, Umbrella plant (Umbrella plant; 600 g/10a, leaf age 2 (second group of columns)) | Weed kill degree, Dopatrium junceum (Dopatrium junceum; 300 g/10a, leaf age 2, 20 days after application) | Weed kill degree, Dopatrium junceum (Dopatrium junceum; [7]) | Weed kill degree, Dopatrium junceum (Dopatrium junceum; 600 g/10a, leaf age 2, 20 days after application) | Weed kill degree, Dopatrium junceum (Dopatrium junceum; [8]) | Weed kill degree, Bulrush (Bulrush; [7]) | Weed kill degree, Bulrush (Bulrush; 300 g/10a, leaf age 3-5, 20 days after application) | Weed kill degree, Bulrush (Bulrush; [8]) | Weed kill degree, Bulrush (Bulrush; 600 g/10a, leaf age 3-5, 20 days after application)
82%: inhibition at 750 g/ha [1, 6]
100%: inhibition at 1500 g/ha [1, 5] | inhibition at 1500 g/ha [1, 6] | inhibition at 3000 g/ha [1, 5] | inhibition at 3000 g/ha [1, 6] | inhibition at 6000 g/ha [1, 5] | inhibition at 6000 g/ha [1, 6] | inhibition at 9000 g/ha [1, 5] | inhibition at 9000 g/ha [1, 6] | inhibition at 1000 g/ha [2, 9] | inhibition at 1000 g/ha [2, 10] | inhibition at 3000 g/ha [2, 9] | inhibition at 3000 g/ha [2, 10] | inhibition at 9000 g/ha [2, 9] | inhibition at 9000 g/ha [2, 10] | inhibition at 3000 g/ha [3] | inhibition at 3000 g/ha [4]
95%: inhibition at 750 g/ha [1, 5]
equivalent: activity for killing Echinochloa spp. ([1]; trans-form, cis-form and mixtures compared)
